System: AGS cells (KRAS^G12D)
Experiment: Detection of cell proliferation in vitro by MTT/MTS method (cell activity experiment)
Type: cell-based
Conditions: AGS cells; MTT/MTS; 3 days of drug treatment; read-out: AGS IC50
Method in brief: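 KRAS G12D AGS cells seeded at 1000 per well, compound added 24 h later, 0.5% final DMSO. Viability read after 3 days of treatment by MTT (solubilised in DMSO) or MTS, 4 h, absorbance 490 nm. IC50 from dose–response curves versus DMSO control.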

Compound `C#Cc1c(F)ccc2cc(O)cc(-c3ccc4c(N5C[C@H]6CC[C@@H](C5)N6)c(F)c(OC[C@@]56CCCN5C[C@H](F)C6)nc4c3F)c12` [Example 335, 4-(4-((1R,5S)-3,8-diazabicyclo[3.2.1]octan-3-yl)-3,8-difluoro-2-(((2R,7aS)-2-fluorotetrahydro-1H-pyrrolizin-7a(5H)-yl)methoxy)quinolin-7-yl)-5-ethynyl-6-fluoronanhthalen-2-ol] has an IC50 of 20.7 nM.

Same assay, conditions: Homo sapiens, AGS, 72 h, AGS cells; MTT/MTS; 3 days of drug treatment; read-out: AGS IC50

First: CCc1c(F)ccc2cc(O)cc(-c3ccc4c(N5C[C@H]6CC[C@@H](C5)N6)c(C#N)c(OC[C@@]56CCCN5C[C@H](F)C6)nc4c3)c12 [Example 172, 4-((1R,5S)-3,8-diazabicyclo[3.2.1]octan-3-yl)-7-(8-ethyl-7-fluoro-3-hydroxynaphthalen-1-yl)-2-(((2R,7aS)-2-fluorotetrahydro-1H-pyrrolizin-7a(5H)-yl)methoxy)quinoline-3-carbonitrile]
Second: C#Cc1c(F)ccc2cc(O)cc(-c3ccc4c(N5C[C@H]6CC[C@@H](C5)N6)c(C(F)(F)F)c(OC[C@@]56CCCN5C[C@H](F)C6)nc4c3)c12 [Example 183, 4-(4-((1R,5S)-3,8-diazabicyclo[3.2.1]octan-3-yl)-2-(((2R,7aS)-2-fluorotetrahydro-1H-pyrrolizin-7a(5H)-yl)methoxy)-3-(trifluoromethyl)quinolin-7-yl)-5-ethynyl-6-fluoronaphthalen-2-ol]
The IC50 of the first is lower: 1230 nM for the first, > 2500 nM for the second. The first is the more potent here.

Going from `C#Cc1c(F)ccc2cc(O)cc(-c3cc4nc(OC[C@@]56CCCN5C[C@H](F)C6)nc(N5C[C@H]6CC[C@@H](C5)N6)c4c4ncn(C)c34)c12` [Example 400, 4-(9-((1R,5S)-3,8-diazabicyclo[3.2.1]octan-3-yl)-7-(((2R,7aS)-2-fluorotetrahydro-1H-pyrrolizin-7a(5H)-yl)methoxy)-3-methyl-3H-imidazo[4,5-f]quinazolin-4-yl)-5-ethynyl-6-fluoronaphthalen-2-ol] to `C#Cc1c(F)ccc2cc(O)cc(-c3c4c(c5c(N6C[C@H]7CC[C@@H](C6)N7)nc(OC[C@@]67CCCN6C[C@H](F)C7)nc5c3F)OCO4)c12` [Example 393, 4-(9-((1R,5S)-3,8-diazabicyclo[3.2.1]octan-3-yl)-5-fluoro-7-(((2R,7aS)-2-fluorotetrahydro-1H-pyrrolizin-7a(5H)-yl)methoxy)-[1,3]dioxolo[4,5-f]quinazolin-4-yl)-5-ethynyl-6-fluoronaphthalen-2-ol], the IC50 falls from > 2500 nM to 70 nM. The second is the more potent here.

Compared with `CC1(C)CCc2cc(O)cc(-c3ncc4c(N5C[C@H]6CC[C@@H](C5)N6)nc(OC[C@@]56CCCN5C[C@H](F)C6)nc4c3F)c21` [Example 299, 7-(4-((1R,5S)-3,8-diazabicyclo[3.2.1]octan-3-yl)-8-fluoro-2-(((2R,7aS)-2-fluorotetrahydro-1H-pyrrolizin-7a(5H)-yl)methoxy)pyrido[4,3-d]pyrimidin-7-yl)-1,1-dimethyl-2,3-dihydro-1H-inden-5-ol], `CCc1coc2cc(O)cc(-c3ncc4c(N5C[C@H]6CC[C@@H](C5)N6)nc(OC[C@@]56CCCN5C[C@H](F)C6)nc4c3F)c12` [Example 244, 4-(4-((1R,5S)-3,8-diazabicyclo[3.2.1]octan-3-yl)-8-fluoro-2-(((2R,7aS)-2-fluorotetrahydro-1H-pyrrolizin-7a(5H)-yl)methoxy)pyrido[4,3-d]pyrimidin-7-yl)-3-ethylbenzofuran-6-ol] is 16-fold lower in IC50: 945 nM for the first, 59 nM for the second.

`Oc1cc(-c2ncc3c(C4C[C@H]5CC[C@@H](C4)N5)nc(OC[C@@]45CCCN4C[C@H](F)C5)nc3c2F)c2c(F)cccc2c1` (stereo partly drawn) [Example 82, 4-(4-((1R,5S)-8-azabicyclo[3.2.1]octan-3-yl)-8-fluoro-2-(((2R,7aS)-2-fluorotetrahydro-1H-pyrrolizin-7a(5H)-yl)methoxy)pyrido [4,3-d]pyrimidin-7-yl)-5-fluoronaphthalen-2-ol] and `O=C(CO)N1CCC(c2nc(OC[C@@]34CCCN3C[C@H](F)C4)nc3c(F)c(-c4cc(O)cc5ccc(F)c(F)c45)ncc23)C1` (stereo partly drawn) [Example 85, 1-(3-(7-(7,8-difluoro-3-hydroxynaphthalen-1-yl)-8-fluoro-2-(((2R,7aS)-2-fluorotetrahydro-1H-pyrrolizin-7a(5H)-yl)methoxy)pyrido[4,3-d]pyrimidin-4-yl)pyrrolidin-1-yl)-2-hydroxyethan-1-one] cannot be ordered by IC50: > 2500 nM for the first, > 1000 nM for the second.

Going from `C#Cc1cccc2cc(O)cc(N3CCc4c(nc(OC[C@@]56CCCN5C[C@H](F)C6)nc4N4C[C@H]5CC[C@@H](C4)N5)C3)c12` [Example 206, 4-(4-((1R,5S)-3,8-diazabicyclo[3.2.1]octan-3-yl)-2-(((2R,7aS)-2-fluorotetrahydro-1H-pyrrolizin-7a(5H)-yl)methoxy)-5,8-dihydropyrido[3,4-d]pyrimidin-7(6H)-yl)-5-ethynylnaphthalen-2-ol] to `C#Cc1cccc2cc(O)cc(-c3ccc4c(N5C[C@H]6CC[C@@H](C5)N6)nc(OC[C@@]56CCCN5C[C@H](F)C6)nc4c3)c12` [Example 152, 4-(4-((1R,5S)-3,8-diazabicyclo[3.2.1]octan-3-yl)-2-(((2R, 7aS)-2-fluorotetrahydro-1H-pyrrolizin-7a(5H)-yl)methoxy)quinazolin-7-yl)-5-ethynylnaphthalen-2-ol], the IC50 rises from 20 nM to 318 nM (16-fold). The first is the more potent here.

Going from `CC1CCc2cc(O)cc(-c3c(Cl)cc4c(N5C[C@H]6CC[C@@H](C5)N6)nc(OC[C@@]56CCCN5C[C@H](F)C6)nc4c3F)c21` (stereo partly drawn) [Example 304, 7-(4-((1R,5S)-3,8-diazabicyclo[3.2.1]octan-3-yl)-6-chloro-8-fluoro-2-(((2R,7aS)-2-fluorotetrahydro-1H-pyrrolizin-7a(5H)-yl)methoxy)quinazolin-7-yl)-1-methyl-2,3-dihydro-1H-inden-5-ol] to `O=C1CCc2cc(O)cc(-c3ccc4c(N5C[C@H]6CC[C@@H](C5)N6)nc(OC[C@@]56CCCN5C[C@H](F)C6)nc4c3F)c21` [Example 297, 7-(4-((1R,5S)-3,8-diazabicyclo[3.2.1]octan-3-yl)-8-fluoro-2-(((2R,7aS)-2-fluorotetrahydro-1H-pyrrolizin-7a(5H)-yl)methoxy)quinazolin-7-yl)-5-hydroxy-2,3-dihydro-1H-inden-1-one], the IC50 rises from 35 nM to > 2500 nM. The first is the more potent here.

`CCc1c(F)ccc2cc(O)cc(-c3ccc4c(N5C[C@H]6CC[C@@H](C5)N6)nc(OC[C@@]56CCCN5C[C@H](F)C6)nc4n3)c12` [Example 141, 4-(4-((1R,5S)-3,8-diazabicyclo[3.2.1]octan-3-yl)-2-(((2R,7aS)-2-fluorotetrahydro-1H-pyrrolizin-7a(5H)-yl)methoxy)pyrido[2,3-d]pyrimidin-7-yl)-5-ethyl-6-fluoronaphthalen-2-ol] and `Oc1cc(-c2ccc3c(N4C[C@H]5CC[C@@H](C4)N5)nc(OC[C@@]45CCCN4C[C@H](F)C5)nc3n2)c2c(F)c(F)ccc2c1` [Example 142, 4-(4-((1R,5S)-3,8-diazabicyclo[3.2.1]octan-3-yl)-2-(((2R,7aS)-2-fluorotetrahydro-1H-pyrrolizin-7a(5H)-yl)methoxy)pyrido[2,3-d]pyrimidin-7-yl)-5,6-difluoronaphthalen-2-ol] cannot be ordered by IC50: > 2500 nM for the first, > 2500 nM for the second.

`C#Cc1c(F)ccc2cc(O)cc(-c3ccc4c(N5CC6CCC(C5)[S+]6[O-])nc(OC[C@@]56CCCN5C[C@H](F)C6)nc4c3F)c12` (stereo partly drawn) [Example 159, (1R,5S,8R)-3-(7-(8-ethynyl-7-fluoro-3-hydroxynaphthalen-1-yl)-8-fluoro-2-(((2R,7aS)-2-fluorotetrahydro-1H-pyrrolizin-7a(5H)-yl)methoxy)quinazolin-4-yl)-8-thia-3-azabicyclo[3.2.1]octane 8-oxide] and `C#Cc1c(F)ccc2cc(O)cc(-c3ccc4c(N5CCC(C#N)CC5)nc(OC[C@@]56CCCN5C[C@H](F)C6)nc4c3F)c12` [Example 133, 1-(7-(8-ethynyl-7-fluoro-3-hydroxynaphthalen-1-yl)-8-fluoro-2-(((2R, 7aS)-2-fluorotetrahydro-1H-pyrrolizin-7a(5H)-yl)methoxy)quinazolin-4-yl)piperidine-4-carbonitrile] cannot be ordered by IC50: > 2500 nM for the first, > 2500 nM for the second.

Going from `Oc1cccc2cccc(C#Cc3ccc4c(N5C[C@H]6CC[C@@H](C5)N6)nc(OC[C@@]56CCCN5C[C@H](F)C6)nc4c3F)c12` [Example 364, 8-((4-((1R,5S)-3,8-diazabicyclo[3.2.1]octan-3-yl)-8-fluoro-2-(((2R,7aS)-2-fluorotetrahydro-1H-pyrrolizin-7a(5H)-yl)methoxy)quinazolin-7-yl)ethynyl)naphthalen-1-ol] to `C#Cc1cc2c(N3C[C@H]4CC[C@@H](C3)N4)nc(OC[C@@]34CCCN3C[C@H](F)C4)nc2c(F)c1-c1cc(O)cc2ccccc12` [Example 369, 4-(4-((1R,5S)-3,8-diazabicyclo[3.2.1]octan-3-yl)-6-ethynyl-8-fluoro-2-(((2R,7aS)-2-fluorotetrahydro-1H-pyrrolizin-7a(5H)-yl)methoxy)quinazolin-7-yl)naphthalen-2-ol], the IC50 falls from 811 nM to 180 nM (4.5-fold).

Compared with `Nc1cc2ccccc2c(-c2ncc3c(N4C[C@H]5CC[C@@H](C4)N5)nc(OCC4(CN5CCCC5)CC4)nc3c2F)n1` [Example 7, 1-(4-((1R,5S)-3,8-diazabicyclo[3.2.1]octan-3-yl)-8-fluoro-2-((1-(pyrrolidin-1-ylmethyl)cyclopropyl)methoxy)pyrido[4,3-d]pyrimidin-7-yl)isoquinolin-3-amine], `C#Cc1c(F)ccc2cc(O)cc(-c3ccc4c(N5CC6CCC(N6)C5=O)nc(OC[C@@]56CCCN5C[C@H](F)C6)nc4c3F)c12` (stereo partly drawn) [Example 214, 3-(7-(8-ethynyl-7-fluoro-3-hydroxynaphthalen-1-yl)-8-fluoro-2-(((2R,7aS)-2-fluorotetrahydro-1H-pyrrolizin-7a(5H)-yl)methoxy)quinazolin-4-yl)-3,8-diazabicyclo[3.2.1]octan-2-one] is higher in IC50: 2580 nM for the first, > 10000 nM for the second.

In the case of `CCC1CCCc2cc(O)cc(-c3ccc4c(NCC5(N(C)C)CCC5)nc(OC[C@@]56CCCN5C[C@H](F)C6)nc4c3F)c21` (stereo partly drawn) [Example 428, 4-(4-(((1-(dimethylamino)cyclobutyl)methyl)amino)-8-fluoro-2-(((2R,7aS)-2-fluorotetrahydro-1H-pyrrolizin-7a(5H)-yl)methoxy)quinazolin-7-yl)-5-ethyl-5,6,7,8-tetrahydronaphthalen-2-ol], the IC50 is reported as 70 nM.

— patent US20240300980A1, “HETEROCYCLIC COMPOUNDS AS KRAS INHIBITOR, AND PREPARATION THEREFOR AND USE THEREOF IN TREATMENT” (SHANGHAI KECHOW PHARMA, INC., priority 2021, published 2024)
